Experimental data taken from patent publication US20230293420A1, “COSMETIC OR DERMOPHARMACEUTICAL COMPOSITION, PEPTIDE AND USE IN THE REDUCTION AND ELIMINATION OF WRINKLES AND EXPRESSION LINES” (NANOCEUTICALS LTDA, priority 2022, published 2023).
Where a SMILES comes first, the peptide text is derived from it.

Key:
[1] = Appearance of solubilized sample in cell culture medium; type: physicochemical; conditions: 1 mg/mL in cell culture medium
myoblast cells = type: cell-based
[2] = test system: Balb/c 3T3 clone 31 cells; test: In vitro study of neutral red cytotoxicity; type: cell-based; conditions: 24 hours incubation
Method: Evaluate the in vitro cytotoxic potential of the Giovian peptide (SEQ ID No. 1) in culture of Balb/c 3T3 clone 31 cells.
In this study, Balb.c 3T3 clone 31 cells were used, obtained from the supplier Banco de Células do Rio de Janeiro, batch 001242, maintained in cultivation with DMEM (Dulbecco's Modified Eagle's Medium) with the addition of supplements, in an oven at 37° C. and 5% of CO2, and were manipulated inside the laminar flow hood. In passage 04 after thawing, the cells were distributed in 96-well plates maintained in culture under the same conditions described.
The solutions containing the control, positive control and sample groups were applied to the cell culture, 100 μL per well in quadruplicate for each group, followed by incubation in an oven at 37° C. and 5% CO2 for 24 hours. After washing, cell viability was analyzed with the neutral red indicator, 100 μL per well.
The results were evaluated using Microsoft Excel software. The control group was normalized to 100% and the percentage of cell viability in the sample and in the positive control was calculated in relation to the control. Samples are considered cytotoxic when they have 30% or more reduction in cell viability.

SMILES: CC[C@H](C)[C@H](NC(=O)[C@H](CC(C)C)NC(=O)[C@H](CCCCN)NC(=O)CNC(=O)[C@H](CC(C)C)NC(=O)[C@H](CCCCN)NC(=O)[C@H](CC(C)C)NC(=O)[C@H](Cc1c[nH]c2ccccc12)NC(=O)[C@H](Cc1ccccc1)NC(=O)[C@@H](NC(=O)[C@H](CCCCN)NC(=O)[C@H](CCCNC(=N)N)NC(=O)[C@H](Cc1ccccc1)NC(=O)[C@@H]1CCCN1C(=O)[C@@H](NC(=O)[C@H](Cc1ccccc1)NC(=O)CNC(=O)[C@@H]1CCCN1C(=O)[C@@H]1CCCN1C(=O)[C@@H](N)CCCNC(=N)N)[C@@H](C)O)[C@@H](C)CC)C(=O)N[C@@H](CC(=O)O)C(=O)N[C@@H](C)C(=O)N[C@@H](CC(C)C)C(N)=O [Giovian] (H-RPPGFTPFRKIFWLKLGKLIDAL-NH2)
- appearance of solubilized sample [1]: fully solubilized
- cell relaxation (reduction of cell contractility, collagen disc volume) (myoblast cells): increase in cell relaxation
- concentrations at which the sample did not present cytotoxic effect (cytotoxic = 30% or more reduction in cell viability) [2]: lower than 0.0375 mg/ml
